In series [1] the test system is postmenopausal women with SUI. The series can be described thus: Proof of concept clinical study: 24 hour pad weight test. Type of series: in vivo, human. As to conditions: for Mean Pad Weights % Reduction: week 12. From the text: (§1) Secondary Objectives: • To describe the effect of 12 weeks of treatment of Compound IX on the number of voids/day as assessed by the 3 days voiding diary. […] See Tables 2 (individual subject data) and Tables 4-6 (mean pad weight data for sites 1, 2, and 3, respectively), and FIG. 17 for mean and median reductions in pad weights from baseline to week 12 (across all sites). • To describe the effect of 12 weeks of treatment of Compound IX on SUI as assessed by the Urethral Pressure Profile (UPP). The UPP assessment was removed from the protocol because it is invasive and not standard of care. […] See summary data for all subjects across the 3 sites reported in Table 7 and FIGS. 13A and 13B. • Described is the effect of 12 weeks of treatment of Compound IX on subject reported impression of stress urinary incontinence severity as assessed by the Patient Global Impression of Severity Scale (PGI-S). See summary data for all subjects across the 3 sites reported in FIG. 12A. • Described is the effect of 12 weeks of treatment of Compound IX on subject reported impression of improvement as assessed by the Patient Global Impression of Improvement Scale (PGI-I). See summary data for all subjects across the 3 sites reported in FIG. 12B. • Described is the effect of 12 weeks of treatment of Compound IX on subject reported urogenital distress as assessed by the Urinary Distress Inventory Questionnaire (UDI-6). See summary data for all subjects across of 3 sites reported in Table 7 and FIG. 12C. • Described is the effect of 12 weeks of treatment of Compound IX on subject reported impact of urinary incontinence on daily life as assessed by the Incontinence Impact Questionnaire (IIQ-7). See summary data for all subjects across the 3 sites reported in Table 7 and FIG. 12D. • Described is the effect of 12 weeks of treatment of Compound IX on subject reported sexual function as indicated on the completion of the Female Sexual Function Index Questionnaire (FSFI). See summary data for all subjects across the 3 sites reported in Table 7 and FIG. 15. • Described is the effect of 12 weeks of treatment of Compound IX on pelvic floor muscles as measured by MRI. See FIG. 11 wherein the pelvic MRI for one representative subject on trial is reported at baseline and at 12 weeks, FIG. 16 wherein the pelvic MRI's for three representative subjects on trial are reported at baseline and at 12 weeks, and Example 19 and Table 13 which provide individual measurements of levator ani thickness, inner and outer diameter of the urethra, and endometrial thickness, and mean changes in the same from baseline to week 12.
Reported herein are data for the first 18 patients at 12 weeks for the secondary endpoints of 24 hour pad weight test (Tables 2 and 4-6, and FIG. 17) and change in levator ani muscle, urethra, and endometrium for a selected subjects from Baseline to Week 12 as measured by quantitative MRI (FIGS. 11 and 16, Table 13 and Example 19). Data collection/analysis for these and additional secondary endpoints such as frequency of daily voids, urine volume per void, and bladder stress test is still ongoing.
Overall, the median pad weight decreased by 78%, from 31.07 grams at baseline to 6.97 grams at week 12; whereas mean pad weights decreased by 71% from 74.26 grams at baseline to 21.4 grams at week 12.

For series [2], the system named is levator ani muscle, urethra and endometrium. Nature of the series: Proof of concept clinical study: quantitative pelvic MRI. Type of series: in vivo, human.
Source text: as §1
Quantitative MRI was used to visualize the pelvic floor of all post-menopausal subjects with SUI.
In a continuation of the same study from Example 3, quantitative MRI was used to visualize the pelvic floor of 17 post-menopausal subjects with SUI. MRI was used to visualize and measure the mean thickness of the levator ani muscle, inner and outer diameter of the urethra, and the endometrial thickness of patients on trial at baseline and at the MRI visits approximately 12 weeks after baseline (exact times between baseline and second MRI are given). All data analysis used a significance value of 0.05 with one-tailed paired t-test. The mean change in each measurement and the statistical significance calculation for each value are given below: […]

The subject of series [3] is levator ani muscle. The series can be described thus: Levator ani muscle weight in castrated rats treated subcutaneously for 14 days. Type of series: in vivo, rat. The following applies: castrated Sprague Dawley rats, subcutaneous, 3 mg/day. From the text: At sacrifice, organs were weighed and expressed as raw organ weights. Values are expressed as average±S.D. Increased size and strength of pelvic floor muscles is one mechanism by which SARMs are believed to affect UI.
At sacrifice, organs were weighed and expressed as raw organ weights. Values are expressed as average±S.D.

[4] abbreviates: 17 subjects, baseline to about week 12.
The mark [5] stands for this setting: individual patients, about 12 weeks.

Structures are written as SMILES. “And” between values parts separate entries of the source, which are not always exact repeats. Equal values may be shown once.

Consider `C[C@](O)(COc1ccc(C#N)cc1)C(=O)Nc1ccc(C#N)c(C(F)(F)F)c1` [Compound IX, (S)—N-(4-Cyano-3-(trifluoromethyl)phenyl)-3-(4-cyanophenoxy)-2-hydroxy-2-methylpropanamide], for which the “Mean Pad Weights % Reduction” value in series [1] (Site 1 (n = 10)) worked out at 77%. In series [1] (Site 2 (n = 5)), the “Mean Pad Weights % Reduction” value came out at 66%. Also, in series [1] (Site 3 (n = 2)), the “Mean Pad Weights % Reduction” value is 74%. For the same compound, in series [1] (all sites), the “decrease of mean pad weight at week 12” value is 71% and 78%; the “decrease of median pad weight at week 12” value is 78% and 71%. Moreover, the “median pad weight at week 12” value in series [1] (baseline 31.07 grams) is recorded as 6.97 grams. The “mean pad weight at week 12” value in series [1] (baseline 74.26 grams) was found to be 21.4 grams. The “Pad Weights at Week 12” value in series [1] (individual patients, 3 mg/day p.o., 24 hour pad weight) was 7.31 grams and 7.74 grams and 4.54 grams and 26.93 grams and 3.58 grams and −2.3 grams and 204.4 grams and 14.3 grams and 10.1 grams and 29 grams and 6.9 grams and 5.63 grams and 3.9 grams and 6.13 grams and 7.04 grams and 37.27 grams and 6.48 grams and 6.71 grams. Also, in series [1] (individual patients, week 12 vs baseline), the “% Reduction in pad weight (Week 12)” value is 88% and 55% and 52% and 45% and 98% (2×) and “126%” and 51% and 82% and 75% and 81% and 91% (2×) and 59% and 80% and 27%. Also, the “mean change in levator ani muscle thickness” value in series [2] (17 subjects, baseline 4.79 mm to week 12, p=0.006) is 1.15 mm. Moreover, in series [2] (setting [4]), the “mean change in urethra inner diameter” value is given as 0.07 cm and the “mean change in urethra outer diameter” value was 0.07 cm. Further, in series [2] (setting [5]), the “Endometrial stripe, follow up MRI” value is 2 mm (9×) and 3 mm (2×) and 5 mm and 4 mm (2×); the “Mean levator ani (LA) thickness at the level of the proximal urethra, follow up MRI” value is 4 mm (3×) and 5 mm (3×) and 6 mm (4×) and 1 mm and 6.5 mm and 8 mm and 10.5 mm and 7 mm (2×) and 10 mm; the “Urethra inner diameter, follow up MRI” value is 1.4 cm (2×) and 1.1 cm (3×) and 1.2 cm (2×) and 1 cm (4×) and 0.9 cm (2×) and 1.3 cm (4×); the “Urethra outer diameter, follow up MRI” value is 1.7 cm (2×) and 1.6 cm (5×) and 1.8 cm (3×) and 1.4 cm (2×) and 1.2 cm and 2 cm and 1.9 cm and 1.3 cm (2×). Also, the “mean increase in inner urethral muscle diameter” value in series [2] (week 12, baseline 10.7 mm, p=0.002) worked out at 0.7 mm. Besides, the “mean increase in outer urethral muscle diameter” value in series [2] (week 12, baseline 15.4 mm, p=0.0003) is on record as 0.7 mm. Further, the “levator ani muscle weight” value in series [3] is reported as “elicits hypertrophy of the levator ani muscle”.

The values are drawn from patent US20180353460A1, “METHODS OF TREATING UROLOGICAL DISORDERS USING SARMs” (priority 2014, published 2018).
